Test results published in ChEMBL document CHEMBL1201862, “PubChem BioAssay data set” (2004).
Calls of active or inactive are those of the source.

How the values were obtained:
[1] = general cell-killing toxicity readout – plate reader, dry powder samples, cytotoxicity control for PAX8 inhibitor project, dose response (AID 743021); assay type: functional, cell-based
Paired box protein Pax-8 = Paired box protein Pax-8 (Homo sapiens, UniProt Q06710); experiment: PAX8 transcriptional activity inhibition in RMG-I – RMG-I cells, luciferase, cherry-pick, dose response (AID 687027); assay type: functional, cell-based;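 further: luciferase reporter driven by Pax8 target thyroperoxidase promoter measured by SteadyGlo luminescence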
Paired box protein Pax-8, sequence (Q06710 whole entry): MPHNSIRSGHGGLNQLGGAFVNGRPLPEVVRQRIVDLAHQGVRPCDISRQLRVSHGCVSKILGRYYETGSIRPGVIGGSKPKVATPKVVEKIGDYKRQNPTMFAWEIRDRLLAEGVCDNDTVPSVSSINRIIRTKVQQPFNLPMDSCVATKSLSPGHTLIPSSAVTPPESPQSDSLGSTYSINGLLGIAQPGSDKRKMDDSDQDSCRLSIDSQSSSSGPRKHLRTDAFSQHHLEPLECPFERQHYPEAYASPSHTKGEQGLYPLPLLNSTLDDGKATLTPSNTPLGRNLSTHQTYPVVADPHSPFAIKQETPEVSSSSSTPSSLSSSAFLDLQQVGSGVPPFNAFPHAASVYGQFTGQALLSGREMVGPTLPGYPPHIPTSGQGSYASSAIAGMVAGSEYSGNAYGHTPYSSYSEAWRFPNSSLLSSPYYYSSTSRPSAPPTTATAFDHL

Transthyretin = Transthyretin (Homo sapiens, UniProt P02766); experiment: Luminescence-based cell-based high throughput dose response assay to identify activators of Transthyretin (TTR) transcription.; assay type: functional
Kallikrein-7 = Kallikrein-7 (Homo sapiens, UniProt P49862); experiment: Fluorescence Intensity-based biochemical primary high throughput dose response assay to identify activators of kallikrein-7 (K7) zymogen.
Kallikrein-7, sequence (P49862 whole entry): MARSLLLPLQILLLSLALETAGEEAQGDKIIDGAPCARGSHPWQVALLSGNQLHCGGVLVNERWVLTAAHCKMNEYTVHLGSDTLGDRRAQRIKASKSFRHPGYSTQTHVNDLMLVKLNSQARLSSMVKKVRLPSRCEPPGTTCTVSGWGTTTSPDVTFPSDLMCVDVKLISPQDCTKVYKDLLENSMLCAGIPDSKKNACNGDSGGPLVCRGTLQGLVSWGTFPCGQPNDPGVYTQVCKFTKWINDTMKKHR

[2] = cytotoxicity in MITF-independent A375 cells – cell-based, CellTiter-Glo luminescence, dry powder, set 4, counter-screen for MITF inhibitor project, dose response (AID 624364); assay type: functional; conditions: A-375;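 further: A375 melanoma cells are MITF independent so this is a counter screen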
[3] = viability loss in MITF-independent A375 cells – cell-based, CellTiter-Glo luminescence, dry powder, set 2, counter-screen for MITF inhibitor project, dose response (AID 624489); assay type: functional; conditions: A-375;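 further: actives are compounds lowering A375 viability meaning general cytotoxicity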
[4] = target: Matrix metalloproteinase-14 (Homo sapiens, UniProt P50281); experiment: Dose Response confirmation of uHTS hits for a small molecule inhibitors of MT1-MMP activation in a fluorescence assay set 2.; assay type: functional
[5] = target: Eukaryotic translation initiation factor 4E (Mus musculus, UniProt P63073); experiment: blockers of eIF4G binding by eIF4E – biochemical, TR-FRET, dose response (AID 855); assay type: functional;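 further: potency for disrupting eIF4E binding to eIF4GI seen as loss of FRET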
Eukaryotic translation initiation factor 4E, sequence (P63073 whole entry): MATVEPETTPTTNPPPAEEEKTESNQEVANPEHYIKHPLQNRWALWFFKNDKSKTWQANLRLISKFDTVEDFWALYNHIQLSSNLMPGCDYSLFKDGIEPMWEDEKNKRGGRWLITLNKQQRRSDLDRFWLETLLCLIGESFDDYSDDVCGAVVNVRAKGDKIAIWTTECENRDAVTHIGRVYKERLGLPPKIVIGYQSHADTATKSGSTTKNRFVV

[6] = target: T1, Tyrosine-protein phosphatase non-receptor type 7 (Homo sapiens, UniProt P35236); experiment: HePTP tyrosine phosphatase activity blockers – biochemical, absorbance, leukemia target, primary screen (AID 521); assay type: functional
T1 sequence (P35236 whole entry): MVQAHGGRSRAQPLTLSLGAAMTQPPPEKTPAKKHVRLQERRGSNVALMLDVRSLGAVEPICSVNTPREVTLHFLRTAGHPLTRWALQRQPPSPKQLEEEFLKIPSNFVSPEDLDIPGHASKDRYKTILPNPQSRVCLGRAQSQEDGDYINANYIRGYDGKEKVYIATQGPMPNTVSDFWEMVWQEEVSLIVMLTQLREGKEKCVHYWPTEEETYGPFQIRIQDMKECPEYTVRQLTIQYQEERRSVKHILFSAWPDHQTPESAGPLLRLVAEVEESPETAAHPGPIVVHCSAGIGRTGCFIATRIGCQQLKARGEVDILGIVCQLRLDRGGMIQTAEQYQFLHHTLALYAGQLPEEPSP

[7] = Luminescence Cell-Based Dose Retest to Confirm Inhibitors of Cancer Stem Cells. [Related pubchem assays (depositor defined):AID2717, AID2721]; assay type: functional; conditions: Homo sapiens
[8] = microbe, parasite or virus in culture; assay type: functional; conditions: Mycobacterium tuberculosis
[9] = potency of ADAM10 substrate cleavage blockers – biochemical, QFRET, dose response (AID 743254);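 further: ADAM10 enzyme with the DM2 quenched FRET peptide as substrate; EDANS fluorescence gain as the protease cuts the substrate; inhibitor potency against ADAM10 proteolytic activity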
cells [10] = assay type: functional, cell-based
cells [11] = assay type: functional, cell-based; remark: listed apart in the source
[12] = target: T2, Trace amine-associated receptor 1 (Homo sapiens, UniProt Q96RJ0); experiment: Fluorescence-based cell-based high throughput dose response assay to identify agonists of the human trace amine associated receptor 1 (TAAR1).; assay type: functional
T2 sequence (Q96RJ0 whole entry): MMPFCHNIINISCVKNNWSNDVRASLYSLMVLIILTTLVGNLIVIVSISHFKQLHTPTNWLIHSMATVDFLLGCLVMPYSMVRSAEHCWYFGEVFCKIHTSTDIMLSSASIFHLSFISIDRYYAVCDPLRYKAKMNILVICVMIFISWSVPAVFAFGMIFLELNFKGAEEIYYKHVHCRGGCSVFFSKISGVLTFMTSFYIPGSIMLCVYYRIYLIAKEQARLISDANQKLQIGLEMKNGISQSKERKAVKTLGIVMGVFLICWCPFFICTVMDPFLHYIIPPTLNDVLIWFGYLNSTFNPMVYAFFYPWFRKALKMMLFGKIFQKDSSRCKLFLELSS

[13] = target: T2, Trace amine-associated receptor 1; experiment: Counterscreen for agonists of the human trace amine associated receptor 1 (hTAAR1): Fluorescence-based cell-based high throughput dose response assay to identify hTAAR1 agonist that also desensitize TAAR1 receptor response.; assay type: functional
[14] = target: Disintegrin and metalloproteinase domain-containing protein 17 (Homo sapiens, UniProt P78536); experiment: inhibition of ADAM17 substrate cleavage – biochemical, quenched FRET substrate, counter-screen for ADAM10 exosite inhibitor project, dose response (AID 743253)
Disintegrin and metalloproteinase domain-containing protein 17, sequence (P78536 whole entry, the tested form may be a part): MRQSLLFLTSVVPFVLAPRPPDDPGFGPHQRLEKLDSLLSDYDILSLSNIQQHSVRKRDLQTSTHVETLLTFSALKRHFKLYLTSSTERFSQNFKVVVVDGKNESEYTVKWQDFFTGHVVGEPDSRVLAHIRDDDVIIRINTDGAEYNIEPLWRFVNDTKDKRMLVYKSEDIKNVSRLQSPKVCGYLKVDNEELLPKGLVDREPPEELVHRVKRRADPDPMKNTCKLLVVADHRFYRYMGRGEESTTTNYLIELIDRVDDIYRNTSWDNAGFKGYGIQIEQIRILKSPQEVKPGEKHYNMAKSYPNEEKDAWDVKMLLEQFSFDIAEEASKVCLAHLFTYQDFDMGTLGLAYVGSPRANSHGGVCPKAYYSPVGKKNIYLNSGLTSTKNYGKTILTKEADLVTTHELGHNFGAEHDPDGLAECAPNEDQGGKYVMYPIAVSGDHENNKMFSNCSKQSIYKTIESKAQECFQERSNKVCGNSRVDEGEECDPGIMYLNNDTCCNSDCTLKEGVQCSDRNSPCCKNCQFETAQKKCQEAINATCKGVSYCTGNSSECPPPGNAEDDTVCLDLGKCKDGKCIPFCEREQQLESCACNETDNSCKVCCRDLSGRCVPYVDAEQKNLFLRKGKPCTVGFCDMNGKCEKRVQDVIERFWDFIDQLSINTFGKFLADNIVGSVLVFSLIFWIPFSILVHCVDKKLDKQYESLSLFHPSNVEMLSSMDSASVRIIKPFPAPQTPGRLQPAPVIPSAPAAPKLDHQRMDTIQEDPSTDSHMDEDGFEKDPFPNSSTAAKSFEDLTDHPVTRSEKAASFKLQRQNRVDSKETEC

Troponin, cardiac muscle = Troponin, cardiac muscle (Homo sapiens, UniProt P19429+P45379+P63316); experiment: Fluorescence-based biochemical high throughput dose response assay for activators of the calcium sensitivity of cardiac Regulated Thin Filaments (RTF). [Related pubchem assays (depositor defined):AID493008, AID493018, AID504382, AID504383]; assay type: protein-complex assay
[15] = OVCAR-3 cell viability loss – plate reader, dry powder samples, PAX8 inhibitor project, dose response (AID 743044); assay type: functional, cell-based
[16] = IGROV1 cell killing – plate reader, dry powder samples, PAX8 inhibitor project, dose response (AID 743043); assay type: functional, cell-based; conditions: IGROV-1
[17] = OVCAR8 cell viability loss – plate reader, dry powder samples, PAX8 project, dose response (AID 743197); assay type: functional, cell-based; conditions: OVCAR-8
[18] = Luminescence-based cell-based high throughput dose response assay to identify activators of the DAF-12 from the parasite S. stercoralis (ssDAF-12).; assay type: functional
[19] = target: T3, Oxysterols receptor LXR-beta (Homo sapiens, UniProt P55055); experiment: LXR agonists, Gal4 luciferase reporter, dose response, counter-screen for ssDAF-12 agonist project, cell-based, luminescence, HEK293, S. stercoralis campaign (AID 720737); assay type: functional; conditions: read-out: IC50 (the source's name)
T3 sequence (P55055 whole entry): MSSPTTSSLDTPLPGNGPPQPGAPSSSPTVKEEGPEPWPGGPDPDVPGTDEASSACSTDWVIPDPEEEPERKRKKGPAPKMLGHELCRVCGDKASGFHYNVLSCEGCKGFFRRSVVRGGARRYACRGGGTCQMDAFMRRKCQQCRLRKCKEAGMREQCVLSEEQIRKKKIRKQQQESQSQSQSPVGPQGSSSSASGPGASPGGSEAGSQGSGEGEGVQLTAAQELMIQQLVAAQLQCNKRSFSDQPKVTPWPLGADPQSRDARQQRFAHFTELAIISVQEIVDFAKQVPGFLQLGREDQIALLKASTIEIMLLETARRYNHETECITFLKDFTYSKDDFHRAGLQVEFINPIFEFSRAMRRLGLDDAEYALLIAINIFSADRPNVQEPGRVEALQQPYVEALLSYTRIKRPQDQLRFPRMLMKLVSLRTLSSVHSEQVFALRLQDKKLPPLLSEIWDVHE

[20] = target: 5-hydroxytryptamine receptor 1A (Homo sapiens, UniProt P08908); assay type: functional
5-hydroxytryptamine receptor 1A, sequence (P08908 whole entry): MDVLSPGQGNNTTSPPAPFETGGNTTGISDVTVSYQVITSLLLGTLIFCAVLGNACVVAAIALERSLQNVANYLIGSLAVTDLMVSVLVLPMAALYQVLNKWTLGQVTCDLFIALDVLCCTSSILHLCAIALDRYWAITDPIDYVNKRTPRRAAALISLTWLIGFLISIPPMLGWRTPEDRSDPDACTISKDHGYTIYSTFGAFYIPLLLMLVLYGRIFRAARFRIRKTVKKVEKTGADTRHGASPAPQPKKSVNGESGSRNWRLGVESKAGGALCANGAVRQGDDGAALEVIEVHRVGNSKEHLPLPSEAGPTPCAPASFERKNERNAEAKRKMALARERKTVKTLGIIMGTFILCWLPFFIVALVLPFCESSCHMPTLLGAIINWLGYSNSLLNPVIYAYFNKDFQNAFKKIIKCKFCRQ

[21] = NIH3T3 cell viability loss – ATP luminescence, mouse fibroblasts, counter-screen, dose response (AID 2010); assay type: functional, cell-based;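 further: cells exposed to compound for about 90 hours before reading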
[22] = HEK-293T viability loss after treatment – luminescence, T-cell screen hits, cytotoxicity control for TCR NF-kB inhibitor project, dose response (AID 489026); assay type: functional, cell-based;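 further: cells exposed to compound about 14 hours before the viability readout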
[23] = Luminescence-based dose response cell-based high throughput screening assay for cytotoxic compounds using the IEC-6 intestinal epithelial cell line. [Related pubchem assays: 1858 (Summary AID.), 1825 (Counterscreen.), 1907 (Confirmation screen.)]; assay type: functional
cells [24] = experiment: cells
[25] = Trypanosoma cruzi growth suppression in host cells – NIH3T3 host cells, beta-gal luminescence, confirmation (AID 2044); assay type: functional, cell-based;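 further: intracellular parasites grown in NIH/3T3 mouse fibroblasts as host cells; luminescent beta-galactosidase reporter signal from transgenic T. cruzi replicating inside host cells; inhibitors lower the luminescence signal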

## O=C(C[C@@H]1CC[C@H]2[C@@H](COC[C@@H](O)CN2Cc2cccc(F)c2)O1)NCC1CCCCC1
[1]
  AC50: 61.8 µM (active)
Paired box protein Pax-8
  AC50: 34 µM (active)

## COc1ccc(C(=O)NC2CCCc3c2cnn3-c2cc(F)cc(F)c2)c(OC)c1OC (stereo not given)
Transthyretin
  EC50: > 167 µM (inactive)

## COc1ccc(OC)c(/C=C/C(=O)N(C)CC(=O)Nc2ccc(N3CCOCC3)cc2)c1
Kallikrein-7
  EC50: > 69.5 µM (inactive)

## O=C(NC1=C(N2CCCCC2)C(=O)c2ccccc2C1=O)c1ccc(Br)cc1
[2]
  AC50: > 70 µM (inactive)
[3]
  AC50: 50.3 µM (active)

## Cc1c(C(=O)O)c(O)cc2c1C(=O)c1c(O)c([C@@H]3O[C@H](CO)[C@@H](O)[C@H](O)[C@H]3O)c(O)c(O)c1C2=O [CARMINIC ACID]
[4]
  IC50: 19.5 µM (active)

## COc1cc(-c2cc(=O)c3c(O)c(OC)c(OC)cc3o2)cc(OC)c1O
[4]
  IC50: > 80 µM (inactive)

## NC(=O)c1c(NC(=O)CSc2nnc(-c3ccco3)n2-c2ccccc2)sc2c1CCC2
[5]
  IC50: > 64 µM (inactive)
[6]
  IC50: 10.6 µM (active)

## O=[N+]([O-])c1cccnc1N1CCC(c2cc(-c3cccc(C(F)(F)F)c3)[nH]n2)CC1
[7]
  AC50: 2.87 µM (active)
[8]
  CC50: 28.7 µM (active)
[9]
  IC50: 12.7 µM (inactive)

## c1ccc(Cc2cnc(N3CCNCC3)nc2)cc1
Cells [10]
  IC50: > 29.9 µM (inactive)
Cells [11]
  EC50: > 29.9 µM (inactive)
[12]
  EC50: 7.24 µM (active)
[13]
  IC50: > 29.9 µM (inactive)

## CCCCC[C@@H](C)N1C[C@@H](COCc2ccccc2)Oc2cc(N3CC[C@H](O)C3)ccc2S1(=O)=O
[14]
  IC50: > 69.5 µM (inactive)
[9]
  IC50: 11.3 µM (inactive)

## CNC(=O)N(O)C1N(C)C(=O)N(CC(=O)OC)C1(C)C (stereo not given)
Troponin, cardiac muscle
  EC50: > 71.5 µM (inactive)
[6]
  IC50: > 100 µM (not active)

## CCN(CC)CCCCNC1=C(Nc2ccccc2)C(=O)c2ccccc2C1=O
[2]
  AC50: > 70 µM (inactive)
[3]
  AC50: > 70 µM (inactive)

## C[C@@H]1CN([C@H](C)CO)C(=O)c2cc(NC(=O)Nc3ccc4c(c3)OCO4)ccc2O[C@@H](C)CCCCO[C@H]1CN(C)Cc1ccc(C(F)(F)F)cc1
[15]
  AC50: 11.6 µM (active)
[16]
  AC50: 12.8 µM (active)
Paired box protein Pax-8
  AC50: 8.35 µM (active)
[17]
  AC50: > 60 µM (inactive)

## Cc1c(C(=O)N2CCc3ccccc32)cnn1C
Transthyretin
  EC50: > 167 µM (inactive)

## Cc1ccc(/C=N/Nc2nnc(Cl)c3ccccc23)cc1
[18]
  IC50: > 67.5 µM (inactive)
[19]
  EC50: > 67.5 µM (inactive)

## CC1CN(c2nnnn2-c2ccccc2)CC(C)O1 (stereo not given)
[20]
  EC50: > 50 µM (not active)

## CCC(C)C(=O)N[C@@H](c1ccccc1)[C@@H](O)C(=O)O[C@H]1C[C@@]2(O)[C@@H](OC(=O)c3ccccc3)C3[C@](C)(C(=O)[C@H](OC(C)=O)C(=C1C)C2(C)C)[C@@H](O)C[C@H]1OC[C@@]31OC(C)=O (stereo not given in full)
[21]
  EC50: 6.26 µM (active)
[22]
  IC50: > 80 µM (inactive)
[23]
  IC50: 0.244 µM (active)
Cells [24]
  EC50: 0.025 µM (active)
[25]
  EC50: < 0.1 µM (active)

## COc1ccccc1CCNS(=O)(=O)CCNC(=O)c1ccc2c(c1)OCO2
Cells [10]
  IC50: > 29.9 µM (inactive)
Cells [11]
  EC50: > 29.9 µM (inactive)
[12]
  EC50: 4.48 µM (active)
[13]
  IC50: 6.62 µM (active)

## C[C@@H]1CN([C@H](C)CO)C(=O)c2cc(NS(=O)(=O)c3ccc(Cl)cc3)ccc2O[C@@H](C)CCCCO[C@H]1CN(C)S(=O)(=O)c1ccc(F)cc1
[16]
  AC50: 43.9 µM (active)
Paired box protein Pax-8
  AC50: 2.46 µM (active)
[17]
  AC50: > 70 µM (inactive)

## O=[N+]([O-])c1cccnc1N1CCC(c2cc(-c3cccc(C(F)(F)F)c3)n[nH]2)CC1
[14]
  IC50: > 69.5 µM (inactive)

## CSc1nc2ccc(NC(=O)C3CCCO3)cc2s1 (stereo not given)
[20]
  EC50: > 50 µM (not active)
